Data as given in patent EP0437336B1, “Biophosphoryl hydrazines and their use as pesticides” (priority 1990, dated 1991).
Converted amounts (≈) assume the structure as drawn. Read-outs that look alike come from different tables or passages of the source.

Legend:
Green Peach Aphid [1] = test: Biological Method D: Foliar Insecticidal Activity Test, aphid test; format: in vivo, Myzus persicae; parameters: key: I = inactive at concentration listed
[2] = tested on: southern corn rootworm, Diabrotica undecimpunctata howardi; settings: for pest or weed control at 560 g/ha: Diabrotica undecimpunctata, in Zea mays, foliar, 336 h, read-out: foliar systemic nonagressive Method B crw % control at 0.56 kg/ha (0.5 lb/acre); for foliar systemic nonagressive Method B crw % control at 0.56 kg/ha (0.5 lb/acre): percent control relative to infested check, from root damage ratings, 14 days post-spraying
Two-Spotted Spider Mite = test: Biological Method D: Foliar Insecticidal Activity Test, mite test; format: in vivo, Tetranychus urticae; parameters: key to LC50 TSM: I = inactive at concentration listed; settings: Two-Spotted Spider Mite; for LC50: Tetranychus urticae
[3] = tested on: southern corn rootworm, Diabrotica undecimpunctata howardi; test: Biological Method A: Corn Rootworm Screening Test (treated non-aggressive soil); settings: soil concentration giving 90% mortality, 10 days at 27°C
Boll Weevil [4] = test: Biological Method D: Foliar Insecticidal Activity Test, boll weevil test; format: in vivo, Anthonomous grandis; settings: Boll Weevil
Mexican Bean Beetle = test: Biological Method D: Foliar Insecticidal Activity Test, Mexican Bean Beetle test; format: in vivo, Epilachna varivestis; settings: Epilachna varivestis, Mexican Bean Beetle
Southern Armyworm [5] = test: Biological Method D: Foliar Insecticidal Activity Test, Southern Armyworm test; format: in vivo, Spodoptera eridania; parameters: key: I = inactive at concentration listed
[6] = tested on: southern corn rootworm, Diabrotica undecimpunctata howardi; settings: at-planting soil application
Boll Weevil [7] = test: Biological Method D: Foliar Insecticidal Activity Test, boll weevil test; format: in vivo, Anthonomous grandis; parameters: key: I = inactive at concentration tested; settings: compounds a-r
Description: (§1) Biological Method D: Foliar Insecticidal Activity Test
(§2) In evaluating the foliar insecticidal activity of the compounds of this invention against insects and mites, the following test procedures were employed.
(§3) Not all compounds were tested at each of the several concentrations stated above. Test concentrations of a compound were selected as those most likely to differentiate dose response of a particular compound toward a particular test insect.
(§4) Initial evaluations were made on one or more of the following pests:
For the boll weevil test, 10 adult weevils were placed in a 0.24 ℓ (0.5 pint) glass Mason jar containing a small cube of apple. The weevils were confined to the jar by fiberglass screen mesh secured by a screw-type rim cap. The jars were then sprayed with the test solution using a rotating turntable; directing the spray through the mesh into the jar. The percentage killed was determined after forty-eight and ninety six hours.
(§5) The mortalities obtained in this manner were plotted on logarithmic probability paper.
(§6) The rotating turntable consists of a fixed, continuously operating spray nozzle under which targets are rotated at a fixed speed and distance. If the target is a Petri dish (such as for the bean beetle, armyworm, mite, or aphid tests), the distance from the nozzle is 38.1 cm (15 inches). If the target is a Mason jar (such as for the boll weevil test), the distance from the nozzle is 17.8 cm (7 inches). The nozzle is located 8 inches from the rotating shaft. The targets on individual platforms revolve around the shaft at 1 revolution per 20 seconds but only a brief portion of this time occurs in the spray path. Targets pass only once under the nozzle and then are removed to drying hoods.
(§7) The nozzle used is a 1/4 JCO Spraying Systems (Wheaton, Illinois) air atomizing nozzle equipped with a No. 2850 fluid cap and a No. 70 air cap. At the 68.95 x 10³ Pa gauge (10 psig) air pressure used and with liquid siphon feed, 1.89 ℓ/hr [0.5 GPH (gallons per hour)] are delivered in a round spray pattern with a 21 degree spray angle. Targets are misted with spray droplets to the point that the droplets coalesce to form a uniform thin film insufficient to drown test organisms.

Southern Armyworm [8] = test: Biological Method D: Foliar Insecticidal Activity Test, Southern Armyworm test; format: in vivo, Spodoptera eridania; settings: Spodoptera eridania, Southern Armyworm
Description: as §1, §2, §3, §4
(§8) For the Mexican Bean Beetle and Southern armyworm tests, individual lima bean (Phaseolus limeniss var. Woods' Prolific) leaves were placed on moistened pieces of filter paper in Petri dishes. The leaves were then sprayed with the test solution using a rotating turntable and allowed to dry. The dishes were then infested with 10 third instar larvae of either the Mexican Been Beetle or the Southern Armyworm. The dishes were then covered. Percent mortality was determined for each species and spray concentration at 48 and 96 hours after treatment.
as §5, §6, §7

Green Peach Aphid [9] = test: Biological Method D: Foliar Insecticidal Activity Test, aphid test; format: in vivo, Myzus persicae; settings: Myzus persicae, Green Peach Aphid
Description: as §1, §2, §3, §4
For the aphid test, infested broccoli (Brassica oleracea italica var. DiCicco) leaves containing about 50 aphids were placed in a Petri dish lid on a moistened piece of cotton. The leaves were then sprayed to thorough wetness with the test solution using a rotating turntable, held for twenty-four hours and then the percentage killed was determined.
as §5, §6, §7

Boll Weevil [10] = test: Biological Method D: Foliar Insecticidal Activity Test, boll weevil test; format: in vivo, Anthonomous grandis; parameters: key: I = inactive at concentration listed
Southern Armyworm [11] = test: Biological Method D: Foliar Insecticidal Activity Test, Southern Armyworm test; format: in vivo, Spodoptera eridania; parameters: key: I = inactive at concentration tested; settings: compounds a-r
Description: as §1, §2, §3, §4, §8, §5, §6, §7

[12] = Method D foliar test, read-out: LC50 TSM
[13] = Method D foliar test, 48 hrs, read-out: LC50 BB 48 hrs.
[14] = Method D foliar test, 96 hrs, read-out: LC50 BB 96 hrs
[15] = foliar, compounds a-r, read-out: LC 50 TSM
[16] = foliar, 48 hrs, compounds a-r, read-out: LC 50 BB 48 hrs.
[17] = foliar, 96 hrs, compounds a-r, read-out: LC 50 BB 96 hrs.
[18] = Method D foliar test, 96 hrs, read-out: LC50 AW 96 hrs

Compound	LC50 GPA (Green Peach Aphid [1])	pest or weed control at 560 g/ha [2] [%]	LC50 (Two-Spotted Spider Mite; [12]) [µg/mL]	primary nonagressive Method A crw LC90 [3] [ppm]	LC50 BW 96 hrs (Boll Weevil [4]; Method D foliar test) [ppm]	LC50 (Mexican Bean Beetle; [13]) [µg/mL]	LC50 (Mexican Bean Beetle; [14]) [µg/mL]	LC50 AW 48 hrs (Southern Armyworm [5])	LC50 AW 96 hrs (Southern Armyworm [5])	secondary aggressive Method C crw LC50 ([6]; rated 17 days post-infestation) [kg/ha]	secondary aggressive Method C crw LC50 ([6]; value in brackets) [lb/acre]	foliar systemic nonagressive Method B crw % control at 0.56 kg/ha (0.5 lb/acre) [2] [%]	LC50 BW 48 hrs (Boll Weevil [10])	LC50 BW 96 hrs (Boll Weevil [10])	LC50 (Green Peach Aphid [9]; Method D foliar test) [µg/mL]	LC50 TSM (Two-Spotted Spider Mite; Method D foliar test)	further results
CCOP(=S)(NNP(=S)(OCC)OCC(C)(C)C)OCC (stereo not drawn) [Compound 38, N-(O,O-diethylthiophosphoryl) N′-(O-ethyl O-neopentylthiophosphoryl) hydrazine]	I	46	150 (≈ 396 µM)	0.07	740	60 (≈ 159 µM)	60 (≈ 159 µM)	I	I	0.5	0.45						LC50 BW 48 hrs (Boll Weevil [4]; Method D foliar test): 740 ppm
CCCOP(=S)(NN(C)P(=S)(OCC)OCC)OCC (stereo not drawn) [c, N-(O,O-diethylthiophosphoryl) N′-(O-ethyl O-propylthiophosphoryl) N-methyl hydrazine]																	LC50 (Two-Spotted Spider Mite; [15]): 150 µg/mL (≈ 412 µM); LC50 BW 48 hrs (Boll Weevil [7]; 48 hrs): I; LC50 BW 96 hrs (Boll Weevil [7]; 96 hrs): I; LC50 (Southern Armyworm [8]; foliar, 48 hrs, compounds a-r, read-out: LC 50 AW 48 hrs.): 150 µg/mL (≈ 412 µM); LC50 (Southern Armyworm [8]; foliar, 96 hrs, compounds a-r, read-out: LC 50 AW 96 hrs.): 150 µg/mL (≈ 412 µM); LC50 (Mexican Bean Beetle; [16]): 150 µg/mL (≈ 412 µM); LC50 (Mexican Bean Beetle; [17]): 150 µg/mL (≈ 412 µM); LC50 (Green Peach Aphid [9]; foliar, compounds a-r): 290 µg/mL (≈ 796 µM)
CCOP(=S)(NNP(=S)(OCC)OC(C)CC)OCC (stereo not drawn) [Compound 8]	I		335 (≈ 919 µM)	<0.1	740	500 (≈ 1370 µM)	84 (≈ 231 µM)	I	I	0.81	0.72	53	I				
CCOP(=O)(NNP(=S)(OCC)OCC)OCC [Compound 2, reference compound]			540 (≈ 1690 µM)	0.87				I	I			0	I	I	150 (≈ 468 µM)		
CCOP(=S)(NNP(=S)(OCC)OCC(C)C)OCC (stereo not drawn) [Compound 11, N-(O,O-diethylthiophosphoryl) N′-(O-ethyl O-isobutylthiophosphoryl) hydrazine]	I			<0.1	740	150 (≈ 412 µM)	60 (≈ 165 µM)	I	I	0.36	0.32	53	I			I	
CCOP(=S)(OCC)N(C)N(C)P(=S)(OCC)OC(C)C (stereo not drawn) [b, N-(O,O-diethylthiophosphoryl) N′-(O-ethyl O-isopropylthiophosphoryl) N,N′-dimethyl hydrazine]																	LC50 (Two-Spotted Spider Mite; [15]): 5.5 µg/mL (≈ 14.5 µM); LC50 AW 48 hrs (Southern Armyworm [11]; 48 hrs): I; LC50 AW 96 hrs (Southern Armyworm [11]; 96 hrs): I; LC50 BW 48 hrs (Boll Weevil [4]; compounds a-r): 740 ppm; LC50 BW 96 hrs (Boll Weevil [4]; compounds a-r): 150 ppm; LC50 (Mexican Bean Beetle; [16]): 150 µg/mL (≈ 396 µM); LC50 (Mexican Bean Beetle; [17]): 150 µg/mL (≈ 396 µM); LC50 (Green Peach Aphid [9]; foliar, compounds a-r): 36 µg/mL (≈ 95.1 µM)
CCCOP(=S)(NNP(=S)(OCC)SC(C)C)OCCC (stereo not drawn) [Compound 23]		16	150 (≈ 380 µM)	0.55		62 (≈ 157 µM)	78 (≈ 198 µM)	I	I				I	I	150 (≈ 380 µM)		
CCOP(=S)(NNP(=S)(OCC)OCC)OCC [Compound 1, reference compound]				0.5				I				16	I	I	500 (≈ 1490 µM)	I	LC50 (Southern Armyworm [8]; [18]): 500 µg/mL (≈ 1490 µM)
CCCOP(=S)(NNP(=S)(OCC)OC(C)CC)OCCC (stereo not drawn) [Compound 19, N-(O,O-dipropylthiophosphoryl) N′-(O-ethyl O-secbutylthiophosphoryl) hydrazine]	I	54		<0.1		78 (≈ 199 µM)	62 (≈ 158 µM)	I	I	0.28	0.25		I	I		I	
CCCOP(=S)(NNP(=S)(OCC)OCCC)OCC (stereo not drawn) [Compound 29, reference compound]	I		150 (≈ 412 µM)	0.09		150 (≈ 412 µM)	150 (≈ 412 µM)			~3.03	~2.7	38	I	I			LC50 (Southern Armyworm [8]; Method D foliar test, 48 hrs, read-out: LC50 AW 48 hrs): 420 µg/mL (≈ 1150 µM); LC50 (Southern Armyworm [8]; [18]): 180 µg/mL (≈ 494 µM)
